This is an account of results in patent US20160280699A1, “SUBSTITUTED PHENYLALANINE DERIVATIVES” (BAYER PHARMA AKTIENGESELLSCHAFT, priority 2013, published 2016).

A word on the IC50: it is the concentration needed to halve the response being measured. A higher IC50 goes with a need for much substance.

The subject of assay [1] is human and animal plasma. In words: Determination of anticoagulatory activity: activated partial thromboplastin time (aPTT) in plasma. It counts as biochemical. The settings on record: concentration of test substance which brings about a 1.5-fold extension of the aPTT, 37° C., C.K. Prest kit. On the procedure:
The anticoagulatory activity of the test substances is determined in vitro in human and animal plasma (for example mouse, rat, rabbit, pig and dog plasma). To this end, blood is drawn off in a mixing ratio of sodium citrate/blood of 1:9 using a 0.11 molar sodium citrate solution as receiver. Immediately after the blood has been drawn off, it is mixed thoroughly and centrifuged at about 4000 g for 15 minutes. The supernatant is pipetted off.
The activated partial thromboplastin time (aPTT) is determined in the presence of varying concentrations of test substance or the corresponding solvent using a commercial test kit (C.K. Prest from Diagnostica Stago). The test compounds are incubated with the plasma and the PTT reagent (cephalin, kaolin) at 37° C. for 3 minutes. Coagulation is then started by addition of a 25 mM aqueous calcium chloride solution, and the time when coagulation occurs is determined. The concentration of test substance which brings about a 1.5-fold extension of the aPTT is determined Activity data from this test are listed in Table B below: […]

Assay [2] addresses T1, human factor XIa (Homo sapiens, UniProt P03951).
T1 construct: purchased Kordia
In words: Measurement of FXIa inhibition (fluorogenic peptide substrate Boc-Glu(OBzl)-Ala-Arg-AMC). The note with it: factor XIa from Kordia, 15 min preincubation, 30 min at 22° C., fluorescence. The class given is biochemical. On the procedure: The factor XIa inhibition of the substances according to the invention is determined using a biochemical test system which utilizes the reaction of a peptidic factor XIa substrate to determine the enzymatic activity of human factor XIa. Here, factor XIa cleaves from the peptic factor XIa substrate the C-terminal aminomethylcoumarin (AMC), the fluorescence of which is measured. The determinations are carried out in microtitre plates.
Test substances are dissolved in dimethyl sulphoxide and serially diluted in dimethyl sulphoxide (3000 μM to 0.0078 μM; resulting final concentrations in the test: 50 μM to 0.00013 μM). In each case 1 μl of the diluted substance solutions is placed into the wells of white microtitre plates from Greiner (384 wells). Subsequently, the following are added successively: 20 μl of assay buffer (50 mmol/l Tris buffer pH 7.4; 100 mmol/l sodium chloride; 5 mmol/l calcium chloride; 0.1% bovine serum albumin) and 20 μl of factor XIa from Kordia (0.45 nM in assay buffer). After 15 min of incubation, the enzyme reaction is started by addition of 20 μl of the factor XIa substrate Boc-Glu(OBzl)-Ala-Arg-AMC dissolved in assay buffer (10 μM in assay buffer) from Bachem, the mixture is incubated at room temperature (22° C.) for 30 min and fluorescence is then measured (excitation: 360 nm, emission: 460 nm). The measured emissions of the test batches with test substance are compared to those of control batches without test substance (only dimethyl sulphoxide instead of test substance in dimethyl sulphoxide), and IC50 values are calculated from the concentration/activity relationships.

Where a name gives a salt, the structure may show the parent alone.

T1 sequence (P03951 388-625 limits assumed): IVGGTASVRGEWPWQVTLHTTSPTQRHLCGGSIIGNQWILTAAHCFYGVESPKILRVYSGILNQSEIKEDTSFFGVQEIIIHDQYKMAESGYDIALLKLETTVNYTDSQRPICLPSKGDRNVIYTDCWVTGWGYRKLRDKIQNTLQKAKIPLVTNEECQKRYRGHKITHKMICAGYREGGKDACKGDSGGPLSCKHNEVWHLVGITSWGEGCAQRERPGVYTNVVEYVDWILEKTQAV
T1 sequence (P03951 19-387 partner limits assumed): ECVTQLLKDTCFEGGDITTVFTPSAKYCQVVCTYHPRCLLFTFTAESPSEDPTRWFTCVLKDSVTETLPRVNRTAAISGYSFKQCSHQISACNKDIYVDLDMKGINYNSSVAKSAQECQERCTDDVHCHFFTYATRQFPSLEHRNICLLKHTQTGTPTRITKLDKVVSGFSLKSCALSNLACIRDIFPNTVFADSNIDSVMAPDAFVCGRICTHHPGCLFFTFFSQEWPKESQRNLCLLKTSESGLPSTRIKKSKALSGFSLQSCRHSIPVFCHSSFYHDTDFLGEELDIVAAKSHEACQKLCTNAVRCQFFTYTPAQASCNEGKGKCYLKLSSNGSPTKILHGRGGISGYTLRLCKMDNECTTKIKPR

Turning to `NC[C@H]1CC[C@H](C(=O)N[C@@H](Cc2ccc(-c3ccc(NCCN4CCOCC4)nc3)cc2)C(=O)Nc2ccc(-c3nn[nH]n3)cc2)CC1` [Example 16, N-alpha-{[trans-4-(Aminomethyl)cyclohexyl]carbonyl}-4-(6-{[2-(morpholin-4-yl)ethyl]amino}pyridin-3-yl)-N-[4-(2H-tetrazol-5-yl)phenyl]-L-phenylalaninamide hydrochloride], the “aPTT” value in assay [1] was 0.33 µmol/L. In addition, in assay [2], the IC50 was 13 nM.

Consider `NC[C@H]1CC[C@H](C(=O)N[C@@H](Cc2ccc(-c3ccc(C(F)(F)F)nc3)cc2)C(=O)Nc2ccc(-c3nn[nH]n3)cc2)CC1` [Example 18, N-alpha-{[trans-4-(Aminomethyl)cyclohexyl]carbonyl}-N-[4-(2H-tetrazol-5-yl)phenyl]-4-[6-(trifluoromethyl)pyridin-3-yl]-L-phenylalaninamide hydrochloride], for which the “aPTT” value in assay [1] is 0.33 µmol/L. This compound registered an IC50 in assay [2] of 2.7 nM.

Turning to `CN(C)CCCOc1ccc(-c2ccc(C[C@H](NC(=O)[C@H]3CC[C@H](CN)CC3)C(=O)Nc3ccc(-c4noc(=O)[nH]4)cc3)cc2)cn1` [Example 19, N-alpha-{[trans-4-(Aminomethyl)cyclohexyl]carbonyl}-4-{6-[3-(dimethylamino)propoxy]pyridin-3-yl}-N-[4-(5-oxo-4,5-dihydro-1,2,4-oxadiazol-3-yl)phenyl]-L-phenylalaninamide hydrochloride], in assay [1], the “aPTT” value is 0.17 µmol/L. In assay [2], this compound had an IC50 of 16 nM.

Turning to `COc1cnccc1-c1ccc(C[C@H](NC(=O)[C@H]2CC[C@H](CN)CC2)C(=O)Nc2ccc(-c3nn[nH]n3)cc2)cc1` [Example 20, N-alpha-{[trans-4-(Aminomethyl)cyclohexyl]carbonyl}-4-(3-methoxypyridin-4-yl)-N-[4-(2H-tetrazol-5-yl)phenyl]-L-phenylalaninamide hydrochloride], the “aPTT” value in assay [1] is 0.22 µmol/L. In addition, the IC50 in assay [2] is 3.8 nM.

As to `COc1ccc(-c2ccc(C[C@H](NC(=O)[C@H]3CC[C@H](CN)CC3)C(=O)Nc3ccc(-c4nn[nH]n4)cc3)cc2)c(C)n1` [Example 21, N-alpha-{[trans-4-(Aminomethyl)cyclohexyl]carbonyl}-4-(6-methoxy-2-methylpyridin-3-yl)-N-[4-(2H-tetrazol-5-yl)phenyl]-L-phenylalaninamide hydrochloride], the “aPTT” value in assay [1] amounted to 0.27 µmol/L. Also, the midpoint of inhibition in assay [2], the IC50, lay at 1.3 nM.

Take `CN(C)c1ncc(-c2ccc(C[C@H](NC(=O)[C@H]3CC[C@H](CN)CC3)C(=O)Nc3ccc(-c4nn[nH]n4)cc3)cc2)c(OCc2ccccc2)n1` [Example 22, N-alpha-{[trans-4-(Aminomethyl)cyclohexyl]carbonyl}-4-[4-(benzyloxy)-2-(dimethylamino)-pyrimidin-5-yl]-N-[4-(2H-tetrazol-5-yl)phenyl]-L-phenylalaninamide hydrochloride]: in assay [1], the “aPTT” value turned out to be 0.27 µmol/L. For the same compound, inhibition in assay [2] was half-maximal at 6.1 nM (IC50).

On to `Cc1cnccc1-c1ccc(C[C@H](NC(=O)[C@H]2CC[C@H](CN)CC2)C(=O)Nc2ccc3c(=O)[nH][nH]c3c2)cc1` [Example 23, N-alpha-{[trans-4-(Aminomethyl)cyclohexyl]carbonyl}-4-(3-methylpyridin-4-yl)-N-(3-oxo-2,3-dihydro-1H-indazol-6-yl)-L-phenylalaninamide hydrochloride], for which the “aPTT” value in assay [1] worked out at 0.24 µmol/L. The compound also showed an IC50 in assay [2] of 3.6 nM.

For the compound `NC[C@H]1CC[C@H](C(=O)N[C@@H](Cc2ccc(-c3ccc(N4CCOCC4)nc3)cc2)C(=O)Nc2ccc3c(=O)[nH][nH]c3c2)CC1` [Example 24, N-alpha-{[trans-4-(Aminomethyl)cyclohexyl]carbonyl}-4-[6-(morpholin-4-yl)pyridin-3-yl]-N-(3-oxo-2,3-dihydro-1H-indazol-6-yl)-L-phenylalaninamide hydrochloride], the “aPTT” value in assay [1] was 0.18 µmol/L. In addition, in assay [2], the midpoint of inhibition, the IC50, lay at 3.1 nM.

`CN(C)c1ncc(-c2ccc(C[C@H](NC(=O)[C@H]3CC[C@H](CN)CC3)C(=O)Nc3ccc(-c4nn[nH]n4)cc3)cc2)cn1` [Example 25, N-alpha-{[trans-4-(Aminomethyl)cyclohexyl]carbonyl}-4-[2-(dimethylamino)pyrimidin-5-yl]-N-[4-(2H-tetrazol-5-yl)phenyl]-L-phenylalaninamide hydrochloride]: in assay [1], the “aPTT” value is 0.29 µmol/L. Inhibition in assay [2] was half-maximal at 8 nM (IC50).

As to `NC[C@H]1CC[C@H](C(=O)N[C@@H](Cc2ccc(-c3cccnc3N)cc2)C(=O)Nc2ccc(-c3nn[nH]n3)cc2)CC1` [Example 26, N-alpha-{[trans-4-(Aminomethyl)cyclohexyl]carbonyl}-4-(2-aminopyridin-3-yl)-N-[4-(2H-tetrazol-5-yl)phenyl]-L-phenylalaninamide hydrochloride], in assay [1], the “aPTT” value was 0.19 µmol/L. Besides, the IC50 in assay [2] is 3.7 nM.

For `Cc1ncccc1-c1ccc(C[C@H](NC(=O)[C@H]2CC[C@H](CN)CC2)C(=O)Nc2ccc3c(=O)[nH][nH]c3c2)cc1` [Example 27, N-alpha-{[trans-4-(Aminomethyl)cyclohexyl]carbonyl}-4-(2-methylpyridin-3-yl)-N-(3-oxo-2,3-dihydro-1H-indazol-6-yl)-L-phenylalaninamide hydrochloride], the “aPTT” value in assay [1] came out at 0.24 µmol/L. Further, half-maximal inhibition in assay [2] (IC50) required 5.6 nM.

In the case of `Cc1cc(N2CCOCC2)ncc1-c1ccc(C[C@H](NC(=O)[C@H]2CC[C@H](CN)CC2)C(=O)Nc2ccc(-c3nn[nH]n3)cc2)cc1` [Example 29, N-alpha-{[trans-4-(Aminomethyl)cyclohexyl]carbonyl}-4-[4-methyl-6-(morpholin-4-yl)pyridin-3-yl]-N-[4-(2H-tetrazol-5-yl)phenyl]-L-phenylalaninamide hydrochloride], the “aPTT” value in assay [1] stood at 0.21 µmol/L. This compound displayed an IC50 in assay [2] of 1.3 nM.

For the compound `COc1ccc(-c2ccc(C[C@H](NC(=O)[C@H]3CC[C@H](CN)CC3)C(=O)Nc3ccc4c(=O)[nH][nH]c4c3)cc2)c(C)n1` [Example 30, N-alpha-{[trans-4-(Aminomethyl)cyclohexyl]carbonyl}-4-(6-methoxy-2-methylpyridin-3-yl)-N-(3-oxo-2,3-dihydro-1H-indazol-6-yl)-L-phenylalaninamide hydrochloride], in assay [1], the “aPTT” value was found to be 0.34 µmol/L. The compound further returned an IC50 in assay [2] of 6.7 nM.

`COc1nc(N2CCN(C)CC2)ncc1-c1ccc(C[C@H](NC(=O)[C@H]2CC[C@H](CN)CC2)C(=O)Nc2ccc(-c3nn[nH]n3)cc2)cc1` [Example 31, N-alpha-{[trans-4-(Aminomethyl)cyclohexyl]carbonyl}-4-[4-methoxy-2-(4-methylpiperazin-1-yl)pyrimidin-5-yl]-N-[4-(2H-tetrazol-5-yl)phenyl]-L-phenylalaninamide hydrochloride]: the “aPTT” value in assay [1] turned out to be 0.22 µmol/L. Further, the IC50 in assay [2] worked out at 15 nM.

With `NC[C@H]1CC[C@H](C(=O)N[C@@H](Cc2ccc(-c3ccc(Oc4cccnc4)nc3)cc2)C(=O)Nc2ccc(-c3nn[nH]n3)cc2)CC1` [Example 32, N-alpha-{[trans-4-(Aminomethyl)cyclohexyl]carbonyl}-4-[6-(pyridin-3-yloxy)pyridin-3-yl]-N-[4-(2H-tetrazol-5-yl)phenyl]-L-phenylalaninamide hydrochloride], the “aPTT” value in assay [1] was found to be 0.3 µmol/L. The IC50 in assay [2] was determined as 2.4 nM.

As for `NC[C@H]1CC[C@H](C(=O)N[C@@H](Cc2ccc(-c3ccnc(N4CCNCC4)c3)cc2)C(=O)Nc2ccc(-c3nn[nH]n3)cc2)CC1` [Example 33, N-alpha-{[trans-4-(Aminomethyl)cyclohexyl]carbonyl}-4-[2-(piperazin-1-yl)pyridin-4-yl]-N-[4-(2H-tetrazol-5-yl)phenyl]-L-phenylalaninamide hydrochloride], the “aPTT” value in assay [1] was found to be 0.29 µmol/L. Moreover, 20 nM corresponded to half-maximal inhibition in assay [2] (IC50).

In the case of `NC[C@H]1CC[C@H](C(=O)N[C@@H](Cc2ccc(-c3ccc(N4CCOCC4)nc3)cc2)C(=O)Nc2ccc(-c3cc(=O)[nH][nH]3)cc2)CC1` [Example 34, N-alpha-{[trans-4-(Aminomethyl)cyclohexyl]carbonyl}-4-[6-(morpholin-4-yl)pyridin-3-yl]-N-[4-(5-oxo-2,5-dihydro-1H-pyrazol-3-yl)phenyl]-L-phenylalaninamide hydrochloride], the “aPTT” value in assay [1] was found to be 0.14 µmol/L. Also, the half-inhibitory concentration (IC50) in assay [2] was determined as 5.4 nM.
